pIC50: −log10 of the molar value.
Test system: 616215-338-R-J1-PDC complex spheroids, viability % test/control
Assay: Anticancer human tumor 616215-338-R-J1-PDC patient-derived colon adenocarcinoma cell line growth inhibition [CLK]
Settings: for pIC50: curve of first compound; for viability, T/C: stronger effect = lower value
Method in brief: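 Patient-derived tumor cells grown as complex spheroids with HUVEC endothelial cells and mesenchymal stem cells, treated with drug combinations. Concentrations descend in half-log steps from near clinical Cmax, or from 10 microM if Cmax unknown.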
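Also: spheroids exposed to agents for 7 days.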
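For viability, T/C in this document: 100% = DMSO vehicle wells.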

In the case of `Cn1ncnc1[C@H]1c2n[nH]c(=O)c3cc(F)cc(c23)N[C@@H]1c1ccc(F)cc1` + CN1CCN(c2cc(C(=O)Nc3cc4cc(-c5cnn(C)c5)ccc4cn3)ccn2)CC1, the pIC50 (second compound 0.0316 µM) was less than 7.00, the pIC50 (second compound 0.1 µM) was less than 7.00 and the pIC50 (second compound 0.316 µM) was greater than 9.50. The pIC50 (second compound 1 µM) was greater than 9.50, the pIC50 (second compound 3.16 µM) was greater than 9.50 and the pIC50 (second compound 10 µM) was greater than 9.50. The viability, T/C (second compound 0.0316 µM, first compound 0.000316 µM) was 113%, the viability, T/C (second compound 0.0316 µM, first compound 0.001 µM) was 96.3% and the viability, T/C (second compound 0.0316 µM, first compound 0.00316 µM) was 99.7%. The viability, T/C (second compound 0.0316 µM, first compound 0.01 µM) was 122%, the viability, T/C (second compound 0.0316 µM, first compound 0.0316 µM) was 98.3% and the viability, T/C (second compound 0.0316 µM, first compound 0.1 µM) was 112%. For the same molecule, the viability, T/C (second compound 0.1 µM, first compound 0.000316 µM) was 119%, the viability, T/C (second compound 0.1 µM, first compound 0.001 µM) was 106% and the viability, T/C (second compound 0.1 µM, first compound 0.00316 µM) was 102%. It also gave a viability, T/C (second compound 0.1 µM, first compound 0.01 µM) of 105%, a viability, T/C (second compound 0.1 µM, first compound 0.0316 µM) of 101% and a viability, T/C (second compound 0.1 µM, first compound 0.1 µM) of 69.5%. It also gave a viability, T/C (second compound 0.316 µM, first compound 0.000316 µM) of 29.3%, a viability, T/C (second compound 0.316 µM, first compound 0.001 µM) of 35.2% and a viability, T/C (second compound 0.316 µM, first compound 0.00316 µM) of 39.2%. The viability, T/C (second compound 0.316 µM, first compound 0.01 µM) was 38.7%, the viability, T/C (second compound 0.316 µM, first compound 0.0316 µM) was 36.5% and the viability, T/C (second compound 0.316 µM, first compound 0.1 µM) was 32%. The viability, T/C (second compound 1 µM, first compound 0.000316 µM) was 0.12%, the viability, T/C (second compound 1 µM, first compound 0.001 µM) was 0.14% and the viability, T/C (second compound 1 µM, first compound 0.00316 µM) was 1.57%. The viability, T/C (second compound 1 µM, first compound 0.01 µM) was 0.1%, the viability, T/C (second compound 1 µM, first compound 0.0316 µM) was 1.12% and the viability, T/C (second compound 1 µM, first compound 0.1 µM) was 4.26%. The viability, T/C (second compound 3.16 µM, first compound 0.000316 µM) was 0.1%, the viability, T/C (second compound 3.16 µM, first compound 0.001 µM) was 0.14% and the viability, T/C (second compound 3.16 µM, first compound 0.00316 µM) was 2.13%. For the same molecule, the viability, T/C (second compound 3.16 µM, first compound 0.01 µM) was 0.09%, the viability, T/C (second compound 3.16 µM, first compound 0.0316 µM) was 0.08% and the viability, T/C (second compound 3.16 µM, first compound 0.1 µM) was 1.74%. The viability, T/C (second compound 10 µM, first compound 0.000316 µM) was 0.12%, the viability, T/C (second compound 10 µM, first compound 0.001 µM) was 0.17% and the viability, T/C (second compound 10 µM, first compound 0.00316 µM) was 0.13%. It also gave a viability, T/C (second compound 10 µM, first compound 0.01 µM) of 0.13%, a viability, T/C (second compound 10 µM, first compound 0.0316 µM) of 1.65% and a viability, T/C (second compound 10 µM, first compound 0.1 µM) of 0.15%.
Molecule `NC(=O)C(=Cn1cnc(-c2cc(C(F)(F)F)cc(C(F)(F)F)c2)n1)c1cncnc1` + CN1CCN(c2cc(C(=O)Nc3cc4cc(-c5cnn(C)c5)ccc4cn3)ccn2)CC1 has a pIC50 (second compound 0.0316 µM) of 6.66, a pIC50 (second compound 0.1 µM) of 6.99 and a pIC50 (second compound 0.316 µM) greater than 8.02. The pIC50 (second compound 1 µM) was greater than 8.02, the pIC50 (second compound 3.16 µM) was greater than 8.02 and the pIC50 (second compound 10 µM) was greater than 8.02. For the same molecule, the viability, T/C (second compound 0.0316 µM, first compound 0.00949 µM) was 113%, the viability, T/C (second compound 0.0316 µM, first compound 0.03 µM) was 114% and the viability, T/C (second compound 0.0316 µM, first compound 0.0949 µM) was 74.5%. It also gave a viability, T/C (second compound 0.0316 µM, first compound 0.3 µM) of 41.2%, a viability, T/C (second compound 0.0316 µM, first compound 0.949 µM) of 19.1% and a viability, T/C (second compound 0.0316 µM, first compound 3 µM) of 9.26%. The viability, T/C (second compound 0.1 µM, first compound 0.00949 µM) was 104%, the viability, T/C (second compound 0.1 µM, first compound 0.03 µM) was 80.3% and the viability, T/C (second compound 0.1 µM, first compound 0.0949 µM) was 53.4%. For the same molecule, the viability, T/C (second compound 0.1 µM, first compound 0.3 µM) was 24.4%, the viability, T/C (second compound 0.1 µM, first compound 0.949 µM) was 9.65% and the viability, T/C (second compound 0.1 µM, first compound 3 µM) was 2.06%. For the same molecule, the viability, T/C (second compound 0.316 µM, first compound 0.00949 µM) was 13.1%, the viability, T/C (second compound 0.316 µM, first compound 0.03 µM) was 10.7% and the viability, T/C (second compound 0.316 µM, first compound 0.0949 µM) was 1.47%. For the same molecule, the viability, T/C (second compound 0.316 µM, first compound 0.3 µM) was 0.24%, the viability, T/C (second compound 0.316 µM, first compound 0.949 µM) was 0.92% and the viability, T/C (second compound 0.316 µM, first compound 3 µM) was 2.69%. It also gave a viability, T/C (second compound 1 µM, first compound 0.00949 µM) of 0.11%, a viability, T/C (second compound 1 µM, first compound 0.03 µM) of 0.13% and a viability, T/C (second compound 1 µM, first compound 0.0949 µM) of 1.63%. For the same molecule, the viability, T/C (second compound 1 µM, first compound 0.3 µM) was 0.1%, the viability, T/C (second compound 1 µM, first compound 0.949 µM) was 0.37% and the viability, T/C (second compound 1 µM, first compound 3 µM) was 0.09%. The viability, T/C (second compound 3.16 µM, first compound 0.00949 µM) was 0.08%, the viability, T/C (second compound 3.16 µM, first compound 0.03 µM) was 0.11% and the viability, T/C (second compound 3.16 µM, first compound 0.0949 µM) was 0.16%. It also gave a viability, T/C (second compound 3.16 µM, first compound 0.3 µM) of 0.13%, a viability, T/C (second compound 3.16 µM, first compound 0.949 µM) of 0.13% and a viability, T/C (second compound 3.16 µM, first compound 3 µM) of 2.73%. The viability, T/C (second compound 10 µM, first compound 0.00949 µM) was 0.1%, the viability, T/C (second compound 10 µM, first compound 0.03 µM) was 0.13% and the viability, T/C (second compound 10 µM, first compound 0.0949 µM) was 0.41%. For the same molecule, the viability, T/C (second compound 10 µM, first compound 0.3 µM) was 0.23%, the viability, T/C (second compound 10 µM, first compound 0.949 µM) was 0.23% and the viability, T/C (second compound 10 µM, first compound 3 µM) was 1.29%.
